Drawing on PubChem BioAssay (NCI), this text covers TGI and GI50 for 15 compounds.

Common to all, as to test: NCI-60 cell line screen, 48 h
For assay [1], the system named is U251 CNS.
Assay [2] concerns SF-539 CNS.
For assay [3], the system named is COLO 205 colon.
The test system of assay [4] is SNB-75 CNS.
In assay [5] the test system is SW-620 colon.
Assay [6] has as its system HOP-62 NSCLC.
Assay [7] concerns NCI-H23 lung.
For assay [8], the system named is TK-10 renal.
Assay [9] has as its system DU-145 prostate.
The subject of assay [10] is T-47D breast.

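Protocol summary: plate cells (96-well), add compound at 5 concentrations, incubate 48 h, interpolate endpoints linearly. At the GI50, growth is halved. TGI is the concentration that stops growth completely.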

As to `Cc1cnc2[nH]c(-c3cccc(Cl)c3)cc(=O)c2c1`, the TGI in [1] is 92.2 µM; in assay [2], 0.0658 µM; in assay [3], > 37.1 µM; in assay [4], 36.2 µM; in [5], > 100 µM; in [6] it was 3.45 µM. For the same compound, the values for the TGI in assay [7], in [8] and in [9] were > 100 µM, > 100 µM and > 57.8 µM, respectively.

In the case of `COc1c(Cl)c(Cl)c(OC)c2c1C(=O)C=CC2=O`, the TGI in [1] is 40.4 µM; in assay [2], 41.2 µM; in assay [3] it was 31.7 µM; in assay [4] it was 80 µM; in assay [5], 31.2 µM; in assay [7], > 100 µM. In addition, the TGI in [8] turned out to be 41.9 µM.

Consider `O=C1/C(=C2\SCC(=O)N2c2ccccc2)SC(=S)N1c1ccccc1`, for which the TGI in assay [1] is > 100 µM; in [2] it was 85.4 µM; in assay [3] it was > 100 µM; in assay [5] it was > 100 µM; in assay [10], > 100 µM; in assay [7], > 100 µM. For the same compound, the TGI in assay [8] and in assay [9] was > 100 µM in each case.

Consider `Cc1nc2sccn2c1C(=O)OCCOCCOCCOCCOC(=O)c1c(C)nc2sccn12`, for which the TGI in assay [1], in [2], in assay [3], in assay [5], in assay [6] and in assay [7] was > 100 µM throughout. In addition, the TGI in assay [8] and in [9] was > 100 µM each time.

`C=CCc1cccc2cc(C(=O)Nc3nc(C45CC6CC(CC(C6)C4)C5)cs3)c(=O)oc12`: the TGI was 41.9 µM in assay [1]; > 100 µM in assay [2]; 58.9 µM in assay [3]; > 100 µM in assay [4]; > 100 µM in [5]; 36.3 µM in assay [6]. Besides, the values for the TGI in assay [7], in assay [8] and in assay [9] were 59.2 µM, 89.8 µM and > 100 µM, respectively.

Take `CC(C)=CCC/C(C)=C/CC/C(C)=C/CSc1ccc(Cl)cc1C(=O)O`: the TGI in [1] came out at 34.7 µM; in assay [2], 36.4 µM; in [3] it was 51.6 µM; in assay [4] it was 34.3 µM; in [5], 46.9 µM; in [6], 28.1 µM. Moreover, the TGI in assay [7] was 34.9 µM; in assay [8], 37.6 µM; in [9], 56 µM.

With `C/C(=N\n1c(Cc2ccccc2)n[nH]c1=O)c1ccc([N+](=O)[O-])cc1`, the TGI in [1], in assay [3], in [5], in [6], in assay [10] and in [7] was > 100 µM throughout. Further, the TGI in [8] and in [9] was > 100 µM in each case.

`CC(C)C[C@H](NC(=O)[C@H](CCc1ccccc1)NC(=O)c1ccc2ccccc2n1)B(O)O`: the TGI is 6.11 µM in assay [1]; < 0.0225 µM in [2]; 5.18 µM in [3]; 0.175 µM in assay [4]; < 0.0338 µM in [5]; 0.658 µM in assay [6]. Further, the TGI in assay [7] turned out to be 0.338 µM; in [8], 0.407 µM; in assay [9], 3.49 µM.

Turning to `COC(=O)c1ccccc1N=Cc1ccc(N(CCC#N)S(=O)(=O)c2ccccc2)cc1`, the TGI in assay [1], in [2], in assay [3], in assay [4], in assay [5] and in [6] was > 100 µM throughout. Besides, the TGI in [7] and in assay [8] was > 100 µM in each case.

`C/C(=C/c1c(C)[nH]c(=O)[nH]c1=O)C(=O)O`: the TGI in assay [1] is > 1370 µM; in [2] it was > 1380 µM; in assay [3], > 1380 µM; in assay [4], > 1380 µM; in assay [5], > 1380 µM; in [6], > 1380 µM. The TGI in assay [7] is > 1380 µM.

For the compound `CC(C)(Oc1ccc(C(=O)c2ccc(Cl)cc2)cc1Cl)C(=O)N1CCN(c2ccccc2)CC1`, the TGI in assay [1], in assay [2], in assay [5], in assay [6], in assay [7] and in assay [8] was > 100 µM throughout.

For the compound `CC(CC(C)(C)[N+](C)(C)C)[N+](C)(C)C` (stereo not given), the TGI in assay [1], in assay [2], in [3], in assay [4], in [5] and in assay [6] was > 100 µM each time. Besides, the TGI in assay [7], in assay [8] and in assay [9] was > 100 µM throughout.

Turning to `Cn1c(=O)c2[nH]c(-n3nc(-c4ccccc4)cc3N)nc2n(C)c1=O`, the TGI is > 100 µM in assay [1]; 27.1 µM in [2]; 88.7 µM in [3]; > 100 µM in [6]; 65.9 µM in assay [10]; > 100 µM in [8]. This compound also displayed a TGI in assay [9] of 45 µM.

In the case of `COc1ccc(/C=C/C(c2cc(OC)c(OC)c(OC)c2)n2cncn2)cc1O` (stereo not given), the GI50 in assay [1] is 0.0506 µM; in assay [3] it was 3.66 µM; in [5], 0.0394 µM; in assay [10], > 100 µM; in assay [7], 3.47 µM; in assay [8], 21.2 µM. Further, the TGI in assay [1] is 56.4 µM; in assay [3] it was 16.8 µM; in assay [5] it was > 100 µM; in assay [10], > 100 µM; in assay [7], > 100 µM; in assay [8] it was > 100 µM.

As for `c1ccc(-c2nc3ccccc3n3nnnc23)cc1`, the TGI in assay [1] was > 100 µM; in [2], > 100 µM; in [3] it was > 100 µM; in [5] it was > 100 µM; in assay [6], > 100 µM; in [10], 97.3 µM. The TGI in [7], in assay [8] and in [9] was > 100 µM in each case.
